The text below walks through data of US20260035753A1, “METHODS OF DETERMINING BACTERIA AND MANUFACTURING A FIBROUS WEB AND TOOLS AND USES RELATED THERETO” (KEMIRA OYJ, priority 2020, published 2026).

The test system of assay [1] is Thermicanus. The experiment in a line: Microbe control test in recycled fiber pulp (white water + recycled packaging board), 24 h contact time. It counts as cell-based. As to conditions: after 24 h at +50° C.; NGS sequencing and total bacterial qPCR; control 3.2*10^7; performic acid 14 mg/l, monochloramine 15 mg/l, mixture in total 15 mg/l, mixture in total 8 mg/l + zinc 7 mg/l. How it is done: White water from a liner machine using recycled fiber was taken and dry, brown, recycled packaging board was homogenized with the water so that the final consistency of fibers was 2.0%. The pulp was divided into portions and biocides and enzyme inhibitor (zinc) were added into the bottles according to the Table 2. pH of the pulp at the beginning of the test was 7.75 and ORP +175 mV. After this the bottles were incubated at +50° C. for 24 hours. At 24 h pH and ORP were measured and samples for DNA analysis were collected. The amount of Thermicanus was quantified as described in examples 1 and 2.
Biocide and enzyme inhibitor treated samples had clearly higher pH and ORP than control sample. Said biocide and/or enzyme inhibitor treatments also decrease the amount of bacteria belonging to the family Thermicanaceae or genus Thermicanus: The control sample contained 3.2*10^7 Thermicanus cells/ml, and the treated samples>90% less, 1.2-2.2*10^6 cells/ml. Thus, in the treated samples both the physical conditions were better and the amount of Thermicanus was lower than in the control sample.

In assay [2] the test system is Thermicanus. The assay can be described thus: Biocide trial on a paper machine using recycled fiber; Thermicanus quantified with specific qPCR. How it is done: The best primer sequences for a qPCR assay specific for Thermicanus were 5′-[…]-3′ (SEQ ID NO: 2) and 5′-[…]-3′ (SEQ ID NO: 3). Allowing maximum 2 mismatches, these primers detect no 16S rRNA gene of other bacterial genera. The length of the PCR product is 236 bp for Thermicanus aegyptius, the only Thermicanus species described thus far. Specific amplification (one peak in qPCR melt curve analysis) was produced from Thermicanus genomic DNA at annealing temperatures 59-63° C. in qPCR master mix with 2.2 mM Mg^2+ (50 mM salt) and SYBR Green.
Besides in silico verifications, the validity of the Thermicanus qPCR assay with the novel primers was verified with 16 board process DNA samples from RCF pulp and white water (FIG. 1). Samples were selected based on sequencing results to be taxonomically diverse, include wide range of Thermicanus, and include communities with close relatives of Thermicanus including Geobacillus (Bacillaceae). SYBR Green qPCR detection chemistry was used with hot-start qPCR mastermix on BioRad CFX96 cycler or thermal cycler, using annealing temperature of 61° C. for stringent hybridization. The Pearson correlation between the NGS and qPCR-derived Thermicanus abundance was 0.993, when total bacteria were quantified based on genomic DNA concentration (FIG. 1A), and 0.997, when total bacteria were quantified based on general bacterial qPCR (FIG. 1B). These very high correlations verify the specificity and validity of the novel Thermicanus qPCR primers for the quantification of Thermicanus in board process samples.
A biocide trial on a paper machine using recycled fiber was ran with monochloramine (MCA). Samples from stock storage and cloudy white water were taken 7 months and 1 day before starting the trial and 3 weeks after starting the MCA trial. The amount of Thermicanus was quantified with Thermicanaceae-specific qPCR as described in Example 3. MCA trial decreased Thermicanus densities in stock storage and white water by ≥99%.

Some results are limits rather than exact numbers.

As to `NCl` [Monochloramine, monochloramine], the “Thermicanus, cells/ml” value in assay [1] was 1.2*10^6 cells/ml. The “Thermicanus, white water, cells/ml” value in assay [2] (cloudy white water, 3 weeks after start of MCA trial, before trial 2.7*10^8 (7 months) and 2.1*10^8 (1 day)) is given as 7.5*10^5 cells/ml. In addition, the “decrease of Thermicanus densities” value in assay [2] (stock storage and white water, 3 weeks after start of MCA trial versus before trial) is reported as not below 99%. Moreover, the “Thermicanus, stock storage, cells/ml” value in assay [2] (stock storage, 3 weeks after start of MCA trial, before trial 5.8*10^8 (7 months) and 3.9*10^8 (1 day)) is 3.8*10^6 cells/ml.
For `O=COO` [Performic acid], the “Thermicanus, cells/ml” value in assay [1] is 2.0*10^6 cells/ml.
